Assay results reported in publication PMC10307035, “Antiviral activity of singlet oxygen-photogenerating perylene compounds against SARS-CoV-2: Interaction with the viral envelope and photodynamic virion inactivation” (Virus Research, 2023).

Legend:
CRFK cells = experiment: Cytotoxicity assay (Cell Counting Kit-8) in CRFK cells; format: cell-based, Felis catus; settings: up to 10 µM
Experimental: (§1) To determine the overall cytotoxicity of the tested compounds, Vero cells were cultured for 24 h in 96-well plates to form a confluent monolayer, and then were treated with the tested compounds at concentrations of 2 and 10 µM. After 48 h of cultivation in the dark at 37 °C under 5% CO2, the cell culture medium was aspirated. The potential cytotoxicity of the tested perylene derivatives was determined based on cell viability using Cell Counting Kit-8 (Dojindo Molecular Technologies, Munich, Germany) according to the manufacturer's instructions. The cell viabilities of compound-treated Vero cells were compared with those of control DMSO-treated cells. We also used the above-described protocol to assess the cytotoxicity of the selected perylene antivirals, at concentrations ranging from 0 to 10 µM, in CaCo-2 and CRFK cells.

CaCo-2 cells [1] = experiment: Cellular stress marker expression by RT-qPCR in CaCo-2 cells; format: cell-based, human
Experimental: RT-qPCR was performed to evaluate changes in the gene expression of cellular stress markers. […] Previous publications report the primer sequences and numbers of the Universal Probe Library (UPL; Roche Life Sciences, Germany) used for detection of ATF3, CDKN1A (p21), CYP1A1, DDIT3, HMOX1, HSPA1B (HSP70), and HSPA5 mRNAs ([Procházková et al., 2018]; [Šimečková et al., 2020]). […] TaqMan™ Gene Expression Assays (Thermo Fisher Scientific, Waltham, MA, USA) were used to determine the levels of FGF21 (Hs00173927_m1), GADD45A (Hs00169255_m1), GDF15 (Hs00171132_m1), and SRXN1 (Hs00607800_m1). The amplification was run in a 10-µL reaction mixture containing 1 µL of sample, using Kapa Probe Fast One-Step (Kapa Biosystems Pty, Cape Town, South Africa) on a LightCycler® 480 System (Roche Diagnostics, Czech Republic) using the previously published sequence ([Procházková et al., 2018]). Reference gene qPCR assays (Generi Biotech, Hradec Králové, Czech Republic) were used for the following housekeeping genes: human β2-Microglobulin (B2M; #3030), hydroxymethylbilane synthase (HMBS; #3032), and RNA polymerase II subunit A (POLR2A; #3035). We used an average of three reference gene Cp values to calculate the change in gene expression using the comparative threshold cycle method ([Schmittgen and Livak, 2008]).

CaCo-2 cells [2] = experiment: Cytotoxicity assay (Cell Counting Kit-8) in CaCo-2 cells; format: cell-based, human; settings: up to 10 µM
Experimental: as §1

SARS-CoV-2 = experiment: Photodynamic inactivation of SARS-CoV-2 virions; format: cell-based
Experimental: Virus in DMEM (titer of 10^5 PFU/mL) was mixed with the compounds (0–10 µM) in a microtiter plate, in triplicate, and irradiated for 10 min at RT with LEDs (465–480 nm) having an approximate power density of 30 mW/cm^2 (device description in supplement). As a negative control, virus was incubated for 10 min in the dark at RT. Subsequently, both irradiated and non-irradiated virus samples were incubated in the dark at 37 °C for 60 min. All manipulation with the samples before and after this incubation, i.e., mixing the compound with the virus, pipetting into a microtiter plate, etc., were performed in daylight. Viral titers were determined by plaque assays (performed also in daylight) and expressed as PFU/mL, as previously described ([Stefanik et al., 2021]). To eliminate the influence of daylight on compound activity, the whole experiment, including all manipulation with samples, was performed in a dark room under red light. The virus sample was mixed with the indicated compounds at concentrations from 0 to 10 μM or 100 μM, incubated for 60 min at 37 °C and virus viability was evaluated using a plaque assay (Fig. 9A).

## CC(C)(C)C(=O)OCn1c(=O)c(C#Cc2ccc3c4cccc5cccc(c6cccc2c63)c54)cn(CC(=O)N(CCO)CCO)c1=O [Compound 13]
CRFK cells
  tolerability by CRFK cells: well-tolerated
CaCo-2 cells [1]; CaCo-2 cells, 10 µM, all tested incubation periods
  CYP1A1 expression: significantly decreased
CaCo-2 cells [1]; CaCo-2 cells, 5, 24 and 48 h
  expression of HMOX1, SRXN1, TXNRD1 (oxidative stress): did not increase
  expression of HSPA5, DDIT3, HSPA1B (HSP70), CDKN1A (p21), GADD45A: no changes
  expression of early toxicity markers (ATF3, FGF21, GDF15): did not induce
CaCo-2 cells [2]
  tolerability by CaCo-2 cells: well-tolerated
SARS-CoV-2; 100 µM, dark room, red light, 60 min at 37 °C
  antiviral effect under red light only: no antiviral effect
SARS-CoV-2; 465–480 nm, 30 mW/cm^2, 10 min, then 60 min at 37 °C in the dark, plaque assay
  antiviral activity after blue light irradiation of virus-compound mixture: low-nanomolar
SARS-CoV-2; up to 10 µM, dark room, red light, 60 min at 37 °C
  antiviral activity under red light only: completely disappeared
